According to patent US6639111B2, “5-thia-ω-(substituted phenyl)-prostaglandin E alcohols, process for preparing the alcohols and pharmaceutical preparations containing the same as the active ingredient” (Ono Pharmaceutical Co., Ltd., priority 2000, dated 2003):

Columns and labels:
[1] = Converting into carboxylic acid in the living body: concentration in blood plasma of rat (LC/MS/MS); assay type: in vivo, SD-strain male rat; conditions: after Example 1(1) 1 mg/kg intravenous to rat, parent alcohol and the carboxylic acid formed from it
Method: The compound of Example 1(1) (1 mg/kg; alcohol compound) was administered into SD-strain male rat by intravenous route to determine each concentration of the said compound and corresponding carboxylic acid, i.e., (11α, 15α, 13E)-9-oxo-11,15-dihydroxy-16-(3-methoxymethylphenyl)-17,18,19,20-tetranor-5-thiaprost-13-enoic acid (corresponding carboxylic acid) in blood plasma. The test solution may be prepared from a physiological saline solution containing 0.3%ethanol and 0.1% POLYSORBATE 80. The concentration was determined by using liquid chromatograph mass spectrometer (LC/MS/MS).

TNF-α = test: Inhibitory action on producing TNF-α induced by LPS in rat; assay type: in vivo, SD-strain male rat; conditions: p.o. 30 minutes before LPS (10 μg/2 ml/kg i.v.); dose giving 50% inhibition of TNF-α in blood plasma 90 minutes after LPS
Method: LPS (10 μg/2 ml/kg) was administered into a tail vein of SD-strain male rat. Blood was collected from an abdominal large vein with heparin after 90 minutes from administration to prepare blood plasma. The amount of TNF-α in the blood plasma was determined by using ELISA Kit (Rat TNF-α Immunoassay kit, Biosource Co.). Each compound of the present invention was administered orally before 30 minutes from administration of LPS.

Concentration in blood plasma AUC0-∞ [1] | Effective dose IC50 (TNF-α) | AUC(0-inf) ([1]; male, SD, plasma, read-out: Concentration in blood plasma AUC0-∞) | SMILES
99 ± 26 ng·h/mL | – | – | COCc1cccc(C[C@H](O)/C=C/[C@H]2[C@H](O)CC(=O)[C@@H]2CCSCCCC(=O)O)c1 [corresponding carboxylic acid, (11α, 15α, 13E)-9-oxo-11,15-dihydroxy-16-(3-methoxymethylphenyl)-17,18,19,20-tetranor-5-thiaprost-13-enoic acid]
– | 0.0574 mg/kg | 462 ± 78 ng·h/mL | COCc1cccc(C[C@H](O)/C=C/[C@H]2[C@H](O)CC(=O)[C@@H]2CCSCCCCO)c1 [Example 1(1), (11α, 15α, 13E)-9-oxo-11,15-Dihydroxy-16-(3-methoxymethylphenyl)-17,18,19,20-tetranor-5-thiaprost-13-en-1-alcohol]
– | 0.117 mg/kg | – | COCc1cccc(C[C@H](O)/C=C/[C@H]2CCC(=O)[C@@H]2CCSCCCCO)c1 [Example 1, (15α, 13E)-9-oxo-15-Hydroxy-16-(3-methoxymethylphenyl)-17,18,19,20-tetranor-5-thiaprost-13-en-1-alcohol]
